Experiment [1] concerns the target T1, human ALX receptor (Homo sapiens, UniProt P25090).
T1 construct: expressed in transfected cells; host or cells: HEK293 (HEK293-hALXR-Gα16)
T1 sequence (P25090 1-351): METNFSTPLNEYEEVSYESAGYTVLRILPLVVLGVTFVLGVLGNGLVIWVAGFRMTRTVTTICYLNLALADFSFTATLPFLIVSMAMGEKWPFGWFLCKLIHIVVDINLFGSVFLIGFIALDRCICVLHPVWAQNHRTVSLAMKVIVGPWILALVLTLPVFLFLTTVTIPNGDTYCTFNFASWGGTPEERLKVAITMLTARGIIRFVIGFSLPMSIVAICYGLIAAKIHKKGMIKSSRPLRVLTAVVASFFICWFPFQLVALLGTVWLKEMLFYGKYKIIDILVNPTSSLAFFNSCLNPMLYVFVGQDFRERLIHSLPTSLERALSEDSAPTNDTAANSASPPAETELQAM
As to the kind of experiment: Intracellular calcium measurements (FLIPR), agonistic activity in HEK293-hALXR-Gα16 cells. Type of experiment: cell-based. To be noted: Fluo-4 calcium FLIPR, normalized to WKYMVm 10 nM. In outline: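 HEK293 cells expressing hALXR and Gα16 were loaded with 1 μM Fluo-4 AM and 20 mM HEPES for 60 min at 37°C, then exposed to serially diluted compound. FLIPR fluorescence was read at ex 488/em 540 nm. Baseline-subtracted peak responses were normalized to 10 nM WKYMVm.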
In general terms: Calcium flux is commonly read through the fluorescence of an indicator in the cells.

In experiment [2] the target is T2, human FPRL2 (Homo sapiens, UniProt P25089).
T2 construct: expressed in transfected cells; host or cells: HEK293 (HEK293-hFPRL2-Gα16)
T2 sequence (P25089 1-353): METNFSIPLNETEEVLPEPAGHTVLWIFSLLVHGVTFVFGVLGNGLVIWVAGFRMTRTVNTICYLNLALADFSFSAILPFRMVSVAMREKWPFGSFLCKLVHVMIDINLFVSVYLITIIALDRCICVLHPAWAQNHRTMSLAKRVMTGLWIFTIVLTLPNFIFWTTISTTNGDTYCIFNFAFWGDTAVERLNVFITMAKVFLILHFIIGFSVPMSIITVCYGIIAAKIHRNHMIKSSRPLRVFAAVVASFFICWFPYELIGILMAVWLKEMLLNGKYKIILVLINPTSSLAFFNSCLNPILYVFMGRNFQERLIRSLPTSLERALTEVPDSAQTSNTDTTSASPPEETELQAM
As to the kind of experiment: Intracellular calcium measurements (FLIPR), agonistic activity in HEK293-hFPRL2-Gα16 cells. Type of experiment: cell-based. To be noted: Fluo-4 calcium FLIPR, normalized to GLY14-Humanin 100 nM. In outline:
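Peak values after baseline subtraction are expressed relative to 100 nM Gly14-Humanin; compounds diluted in assay buffer from 10 mM DMSO stocks.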

Results on ten compounds are retold here after patent publication US8563714B2, “Bridged spiro [2.4] heptane derivatives as ALX receptor and/or FPRL2 agonists” (Actelion Pharmaceuticals Ltd., priority 2009, dated 2013).

Take `O=C(NCCCCN1CCCC1)[C@H]1[C@H](C(=O)Nc2ccc(Cl)nc2)[C@@H]2C=C[C@H]1C21CC1` [Example 289, (5R)—N^5-(2-Chloro-pyridin-5-yl)-(6R)—N^6-(4-pyrrolidino-butyl)-(4S,7R)-[4,7-ethenylene-spiro[2.4]heptane]-5,6-dicarboxamide]: the values for the EC50 in experiment [1] and in experiment [2] were 0.0016 µM and 0.214 µM, respectively.

For the compound `COc1ccc(NC(=O)C2C(C(=O)NCCC(N)=O)C3C=CC2C32CC2)cc1` [Example 290, (5R)—N^5-(4-Methoxyphenyl)-(6R)—N^6-(3-amino-3-oxopropyl)-(4S,7R)-[4,7-ethenylene-spiro[2.4]heptane]-5,6-dicarboxamide], the EC50 in experiment [1] was 0.032 µM; in experiment [2], 1.44 µM.

Turning to `NC(=O)CCNC(=O)[C@H]1[C@H](C(=O)NCc2ccc(Br)cc2)[C@@H]2CC[C@H]1C21CC1` [Example 291, (5R)—N^5-(4-Bromophenyl-methyl)-(6R)—N^6-(3-amino-3-oxopropyl)-(4S,7R)-[4,7-ethylene-spiro[2.4]heptane]-5,6-dicarboxamide], the figures for the EC50 in experiment [1] and in experiment [2] were 0.113 µM and over 25 µM, respectively.

Take `NC(=O)CCNC(=O)[C@H]1[C@H](C(=O)NCc2ccc(Br)cc2F)[C@@H]2CC[C@H]1C21CC1` [Example 292, (5R)—N^5-(4-Bromo-2-fluorophenyl-methyl)-(6R)—N^6-(3-amino-3-oxopropyl)-(4S,7R)-[4,7-ethylene-spiro[2.4]heptane]-5,6-dicarboxamide]: the EC50 in experiment [1] is 0.071 µM; in experiment [2], 0.661 µM.

On to `COc1ccc(NC(=O)[C@H]2[C@H](C(=O)NCCC(N)=O)[C@H]3CC[C@@H]2C32CC2)cc1` [Example 293, (5R)—N^5-(4-Methoxyphenyl)-(6R)—N^6-(3-amino-3-oxopropyl)-(4S,7R)-[4,7-ethylene-spiro[2.4]heptane]-5,6-dicarboxamide], for which the figures for the EC50 in experiment [1] and in experiment [2] were 0.059 µM and 2.37 µM, respectively.

For the compound `O=C(NCCCCN1CCCC1)[C@H]1[C@H](C(=O)Nc2ccc(Br)cn2)[C@@H]2C=C[C@H]1C21CC1` [Example 294, (5R)—N^5-(5-Bromo-pyridin-2-yl)-(6R)—N^6-(4-pyrrolidino-butyl)-(4S,7R)-[4,7-ethenylene-spiro[2.4]heptane]-5,6-dicarboxamide], the figures for the EC50 in experiment [1] and in experiment [2] were 0.0029 µM and 0.187 µM, respectively.

On to `O=C(NCCCCN1CCCC1)[C@H]1[C@H](C(=O)Nc2ccc(Br)cc2F)[C@@H]2C=C[C@H]1C21CC1` [Example 295, (5R)—N^5-(4-Bromo-2-fluorophenyl)-(6R)—N^6-(4-pyrrolidino-butyl)-(4S,7R)-[4,7-ethenylene-spiro[2.4]heptane]-5,6-dicarboxamide], for which the EC50 in experiment [1] was 0.0013 µM; in experiment [2] it was 0.116 µM.

As for `Cc1cc(Br)ccc1NC(=O)[C@H]1[C@H](C(=O)NCCCCN2CCCC2)[C@H]2C=C[C@@H]1C21CC1` [Example 296, (5R)—N^5-(4-Bromo-2-methylphenyl)-(6R)—N^6-(4-pyrrolidino-butyl)-(4S,7R)-[4,7-ethenylene-spiro[2.4]heptane]-5,6-dicarboxamide], the EC50 in experiment [1] worked out at 0.275 µM; in experiment [2], 0.193 µM.

As for `O=C(NCCCCN1CCCC1)[C@H]1[C@H](C(=O)Nc2ccc(Br)c(Cl)c2)[C@@H]2C=C[C@H]1C21CC1` [Example 297, (5R)—N^5-(4-Bromo-3-chlorophenyl)-(6R)—N^6-(4-pyrrolidino-butyl)-(4S,7R)-[4,7-ethenylene-spiro[2.4]heptane]-5,6-dicarboxamide], the EC50 turned out to be 0.367 µM in experiment [1] and 0.028 µM in experiment [2].

For the compound `NC(=O)CCNC(=O)[C@H]1[C@H](C(=O)Nc2ccc(Cl)nc2)[C@@H]2CC[C@H]1C21CC1` [Example 298, (5R)—N^5-(2-Chloro-pyridin-5-yl)-(6R)—N^6-(3-amino-3-oxopropyl)-(4S,7R)-[4,7-ethylene-spiro[2.4]heptane]-5,6-dicarboxamide], the EC50 in experiment [1] turned out to be 0.024 µM; in experiment [2], 4.07 µM.

In general, EC50 refers to the concentration that produces a half-maximal response.
